Assay results: patent US20230339970A1, “CASEIN KINASE 1 DELTA MODULATORS” (priority 2020, published 2023)

Experiments:
human CSNK1D = target: T1, human CSNK1D (Homo sapiens, UniProt P48730); experiment: Whole Cell nBRET CSNK1D Binding Assay; settings: living CHO cells stably expressing human CSNK1D tagged with nanoluciferase; NanoBret tracer 130 nM; 2 hours at 37 C
T1 construct: expressed in transfected cells

[1] = target: T2, human recombinant GST cleaved CSNK1D (Homo sapiens, UniProt P48730); experiment: Purified Enzyme Assay (ADP-Glo CSNK1D Kinase Assay); format: biochemical; settings: 2 nM CSNK1D; peptide substrate 150 μM; ATP 20 μM; 45 minutes at room temperature
T2 construct: GST (cleaved yes); purchased University of Dundee clone DU 19064
Method in brief: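 Percent activity derived from ADP-Glo quantification of ADP produced. Reactions: compound dose-response with human recombinant GST-cleaved CSNK1D, ATP and substrate peptide PLSRTL-pS-VASLPGL, incubated 45 min at room temperature.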

T1 sequence (P48730 whole entry): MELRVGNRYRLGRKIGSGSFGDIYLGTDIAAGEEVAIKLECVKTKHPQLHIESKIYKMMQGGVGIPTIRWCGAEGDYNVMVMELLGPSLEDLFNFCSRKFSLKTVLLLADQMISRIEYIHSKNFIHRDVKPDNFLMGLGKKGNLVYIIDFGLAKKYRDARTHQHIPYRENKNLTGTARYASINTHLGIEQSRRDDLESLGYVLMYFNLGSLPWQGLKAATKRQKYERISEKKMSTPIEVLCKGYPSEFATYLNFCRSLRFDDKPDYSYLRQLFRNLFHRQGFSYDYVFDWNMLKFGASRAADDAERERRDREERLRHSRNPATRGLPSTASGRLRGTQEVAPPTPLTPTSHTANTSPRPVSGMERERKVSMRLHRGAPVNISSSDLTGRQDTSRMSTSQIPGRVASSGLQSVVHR
T2 sequence (P48730 whole entry): as above

`[2H]C([2H])([2H])C1(C([2H])([2H])[2H])Cc2c(-c3ccnc4[nH]ncc34)c(-c3ccc(F)cc3)nn2C1` [Example 241, 4-[2-(4-Fluorophenyl)-5,5-bis(methyl-d3)-4,6-dihydropyrrolo[1,2-b]pyrazol-3-yl]-1H-pyrazolo[3,4-b]pyridine] showed an IC50 (human CSNK1D) of 7 nM and an IC50 [1] of 2 nM.

Molecule `[2H]C([2H])([2H])C1(C([2H])([2H])[2H])Cn2nc(-c3ccc(F)cn3)c(-c3c(F)cnc4[nH]ncc34)c2CO1` [Example 399, 3-(5-Fluoro-1H-pyrazolo[3,4-b]pyridin-4-yl)-2-(5-fluoropyridin-2-yl)-6,6-bis(methyl-d3)-6,7-dihydro-4H-pyrazolo[5,1-c][1,4]oxazine] has an IC50 (human CSNK1D) of 95 nM and an IC50 [1] of 5 nM.

Work on `C[C@@]1(CF)CCc2c(-c3ccnc4[nH]nc(Cl)c34)c(-c3ccc(F)cn3)nn2C1` (single isomer, unassigned) [Example 291, (*R)-3-Chloro-4-(6-(fluoromethyl)-2-(5-fluoropyridin-2-yl)-6-methyl-4,5,6,7-tetrahydropyrazolo[1,5-a]pyridin-3-yl)-1H-pyrazolo[3,4-b]pyridine] yielded an IC50 (human CSNK1D) of 6 nM and an IC50 [1] of 5 nM.

Work on `Fc1ccc(-c2nn3c(c2-c2ccnc4[nH]ncc24)C2CCC3CC2)nc1` [Example 65, 2-(5-Fluoropyridin-2-yl)-3-(1H-pyrazolo[3,4-b]pyridin-4-yl)-4,5,6,7-tetrahydro-4,7-ethanopyrazolo[1,5-a]pyridine] yielded an IC50 (human CSNK1D) of 55 nM and an IC50 [1] of 3 nM.

`Cc1nc2[nH]ncc2c(-c2c(-c3ccc(F)cn3)nn3c2C[C@@H]2C[C@@H]23)c1F` [Example 273, (4aS,5aS)-3-(5-Fluoro-6-methyl-1H-pyrazolo[3,4-b]pyridin-4-yl)-2-(5-fluoropyridin-2-yl)-4,4a,5,5a-tetrahydrocyclopropa[4,5]pyrrolo[1,2-b]pyrazole] showed an IC50 (human CSNK1D) of 29 nM and an IC50 [1] of 2 nM.

With `Cc1nc(-c2c(-c3ccc(F)cc3)nn3c2CC[C@]2(C3)CC2(F)F)c2cn[nH]c2n1` (single isomer, unassigned) [Example 336, (*R)-2,2-Difluoro-2′-(4-fluorophenyl)-3′-(6-methyl-1H-pyrazolo[3,4-d]pyrimidin-4-yl)-4′,5′-dihydro-7′H-spiro[cyclopropane-1,6′-pyrazolo[1,5-a]pyridine]] the IC50 (human CSNK1D) was 9 nM and the IC50 [1] was 1 nM.

Molecule `Cc1cc(-c2c(-c3ccc(F)cn3)nn3c2CCC(F)(F)C3)c2cn[nH]c2n1` [Example 45, 4-(6,6-Difluoro-2-(5-fluoropyridin-2-yl)-4,5,6,7-tetrahydropyrazolo[1,5-a]pyridin-3-yl)-6-methyl-1H-pyrazolo[3,4-b]pyridine] has an IC50 (human CSNK1D) of 169 nM and an IC50 [1] of 12 nM.

In the case of `Fc1ccc(-c2nn3c(c2-c2ccncc2)COCC3)cc1` [Example 369, 2-(4-Fluorophenyl)-3-(4-pyridyl)-6,7-dihydro-4H-pyrazolo[5,1-c][1,4]oxazine], the IC50 (human CSNK1D) is reported as 96 nM and the IC50 [1] is reported as 12 nM.

`CC[C@@]1(C)Cn2nc(-c3ccc(F)cn3)c(-c3ccnc4[nH]ncc34)c2CO1` (single isomer, unassigned) [Example 170, *S-6-Ethyl-2-(5-fluoropyridin-2-(l)-6-methyl-3-(1H-pyrazolo[3,4-b]pyridin-4-yl)-6,7-dihydro-4H-pyrazolo[5,1-c][1,4]oxazine] gave an IC50 (human CSNK1D) of 42 nM and an IC50 [1] of 2 nM.

For `[2H]C([2H])([2H])C1(C([2H])([2H])[2H])Cc2c(-c3cc(C)nc4[nH]ncc34)c(-c3ccc(F)cc3)nn2C1` [Example 242, 4-[2-(4-Fluorophenyl)-5,5-bis(methyl-d3)-4,6-dihydropyrrolo[1,2-b]pyrazol-3-yl]-6-methyl-1H-pyrazolo[3,4-b]pyridine], the IC50 (human CSNK1D) was 4 nM and the IC50 [1] was 2 nM.

`Cc1n[nH]c2nccc(-c3c(-c4ccc(F)cc4)nn4c3OCC3(C4)CC3(F)F)c12` (single isomer, unassigned) [Example 472, (*S)-2,2-Difluoro-2′-(4-fluorophenyl)-3′-(3-methyl-1H-pyrazolo[3,4-b]pyridin-4-yl)-5′H,7′H-spiro[cyclopropane-1,6′-pyrazolo[5,1-b][1,3]oxazine]] was tested, and the IC50 (human CSNK1D) was 597 nM and the IC50 [1] was 69 nM.

`CC1(C)Cn2nc(-c3ccc(Cl)cn3)c(-c3ccnc4[nH]ncc34)c2CO1` [Example 146, 2-(5-Chloropyridin-2-yl)-6,6-dimethyl-3-(1H-pyrazolo[3,4-b]pyridin-4-yl)-6,7-dihydro-4H-pyrazolo[5,1-c][1,4]oxazine] showed an IC50 (human CSNK1D) of 359 nM and an IC50 [1] of 18 nM.

With `Fc1ccc(-c2nn3c(c2-c2c(F)cnc4[nH]ncc24)CC[C@H]2[C@@H]3C2(F)F)nc1` (single isomer, unassigned) [Example 358, (5a*S,6a*R)-6,6-difluoro-3-(5-fluoro-1H-pyrazolo[3,4-b]pyridin-4-yl)-2-(5-fluoropyridin-2-yl)-5,5a,6,6a-tetrahydro-4H-cyclopropa[e]pyrazolo[1,5-a]pyridine] the IC50 (human CSNK1D) was 85 nM and the IC50 [1] was 4 nM.

`Fc1ccc(-c2nn3c(c2-c2ccnc4[nH]ncc24)C[C@H](F)C3)cc1` [Example 11, (S)-4-(5-Fluoro-2-(4-fluorophenyl)-5,6-dihydro-4H-pyrrolo[1,2-b]pyrazol-3-yl)-1H-pyrazolo[3,4-b]pyridine] showed an IC50 (human CSNK1D) of 4 nM and an IC50 [1] of 1 nM.

In the case of `C[C@H]1OCCn2nc(-c3ccc(F)cn3)c(-c3ccnc4[nH]ccc34)c21` [Example 80, (R)-2-(5-Fluoropyridin-2-yl)-4-methyl-3-(1H-pyrrolo[2,3-b]pyridin-4-yl)-6,7-dihydro-4H-pyrazolo[5,1-c][1,4]oxazine], the IC50 (human CSNK1D) is reported as 3060 nM and the IC50 [1] is reported as 18 nM.

`CCn1ncc2cc(-c3c(-c4ccc(F)cn4)nn4c3OCCC4)cnc21` [Example 441, 3-(1-Ethyl-1H-pyrazolo[3,4-b]pyridin-5-yl)-2-(5-fluoropyridin-2-yl)-6,7-dihydro-5H-pyrazolo[5,1-b][1,3]oxazine] gave an IC50 (human CSNK1D) of 1870 nM and an IC50 [1] of 44 nM.

`CC1COCc2c(-c3ccnc(CO)c3)c(-c3ccc(F)cc3)nn21` (stereo not drawn) [Example 90, (4-(2-(4-Fluorophenyl)-7-methyl-6,7-dihydro-4H-pyrazolo[5,1-c][1,4]oxazin-3-yl)pyridin-2-yl)methanol] showed an IC50 (human CSNK1D) of 352 nM and an IC50 [1] of 16 nM.

Molecule `CC1(C)CCc2c(-c3ccnc4[nH]ncc34)c(-c3ccc(F)cn3)nn2C1` [Example 49, 4-[2-(5-Fluoro-2-pyridyl)-6,6-dimethyl-5,7-dihydro-4H-pyrazolo[1,5-a]pyridin-3-yl]-1H-pyrazolo[3,4-b]pyridine] has an IC50 (human CSNK1D) of 11 nM and an IC50 [1] of 1 nM.

`C[C@]1(C(F)(F)F)Cn2nc(-c3ccc(F)cc3)c(-c3ccn4nccc4c3)c2CO1` (single isomer, unassigned) [Example 412, (*R)-2-(4-Fluorophenyl)-6-methyl-3-(pyrazolo[1,5-a]pyridin-5-yl)-6-(trifluoromethyl)-6,7-dihydro-4H-pyrazolo[5,1-c][1,4]oxazine] was tested, and the IC50 (human CSNK1D) was 694 nM and the IC50 [1] was 149 nM.

`Fc1ccc(-c2nn3c(c2-c2ccnc4[nH]ncc24)CCC(F)(F)C3)cc1` [Example 42, 4-(6,6-Difluoro-2-(4-fluorophenyl)-4,5,6,7-tetrahydropyrazolo[1,5-a]pyridin-3-yl)-1H-pyrazolo[3,4-b]pyridine] showed an IC50 (human CSNK1D) of 16 nM and an IC50 [1] of 3 nM.

`C[C@@]1(CF)CCc2c(-c3ccnc4[nH]ncc34)c(-c3ccc(F)cn3)nn2C1` (single isomer, unassigned) [Example 52, (*R)-4-[6-(Fluoromethyl)-2-(5-fluoro-2-pyridyl)-6-methyl-5,7-dihydro-4H-pyrazolo[1,5-a]pyridin-3-yl]-1H-pyrazolo[3,4-b]pyridine] showed an IC50 (human CSNK1D) of 11 nM and an IC50 [1] of 1 nM.

`Fc1ccc(-c2nn3c(c2-c2ccnc4[nH]ncc24)CC[C@@H]2C[C@@H]23)cc1` (stereo in doubt) [Example 340, (5a*R,6a*S)-2-(4-Fluorophenyl)-3-(1H-pyrazolo[3,4-b]pyridin-4-yl)-5,5a,6,6a-tetrahydro-4H-cyclopropa[e]pyrazolo[1,5-a]pyridine] showed an IC50 (human CSNK1D) of 39 nM and an IC50 [1] of 5 nM.

Work on `C[C@H]1COCc2c(-c3ccnc4[nH]ncc34)c(-c3ccc(F)cc3)nn21` (single isomer, unassigned) [Example 91, (*S)-2-(4-Fluorophenyl)-7-methyl-3-(1H-pyrazolo[3,4-b]pyridin-4-yl)-6,7-dihydro-4H-pyrazolo[5,1-c][1,4]oxazine] yielded an IC50 (human CSNK1D) of 151 nM and an IC50 [1] of 8 nM.

Molecule `C[C@@H]1C[C@H](C)n2nc(-c3ccc(F)cn3)c(-c3ccnc4[nH]ncc34)c2O1` (single isomer, unassigned) [Example 203, (5*R,7*S)-2-(5-Fluoro-2-pyridyl)-5,7-dimethyl-3-(1H-pyrazolo[3,4-b]pyridin-4-yl)-6,7-dihydro-5H-pyrazolo[5,1-b][1,3]oxazine] has an IC50 (human CSNK1D) of 2890 nM and an IC50 [1] of 34 nM.

With `CC(C)C(=O)Nc1cc(-c2c(-c3ccc(F)cn3)nn3c2COC(C)(C)C3)ccn1` [Example 132, N-(4-(2-(5-Fluoropyridin-2-yl)-6,6-dimethyl-6,7-dihydro-4H-pyrazolo[5,1-c][1,4]oxazin-3-yl)pyridin-2-yl)isobutyramide] the IC50 (human CSNK1D) was 11 nM and the IC50 [1] was 3 nM.

For `C[C@@H]1Cn2nc(-c3ccc(F)cn3)c(-c3ccnc4[nH]ncc34)c2CO1` (single isomer, unassigned) [Example 85, (*R)-2-(5-Fluoro-2-pyridyl)-6-methyl-3-(1H-pyrazolo[3,4-b]pyridin-4-yl)-6,7-dihydro-4H-pyrazolo[5,1-c][1,4]oxazine], the IC50 (human CSNK1D) was 371 nM and the IC50 [1] was 22 nM.

Work on `Cc1nc2[nH]ncc2c(-c2c(-c3ccc(F)cn3)nn3c2CCC3)c1F` [Example 9, 5-Fluoro-4-(2-(5-fluoropyridin-2-yl)-5,6-dihydro-4H-pyrrolo[1,2-b]pyrazol-3-yl)-6-methyl-1H-pyrazolo[3,4-b]pyridine] yielded an IC50 (human CSNK1D) of 60 nM and an IC50 [1] of 12 nM.
